Laboratory results: patent publication US7799809B2, “Carboxamide compounds and their use as calpain inhibitors” (Abbott GmbH & Co. KG, priority 2006, dated 2010)

Assays:
Type in all cases: biochemical
cathepsin B = target: T1, cathepsin B (Homo sapiens, UniProt P07858); assay: Cathepsin B enzyme inhibition in vitro (kinetic fluorescence assay); settings: cathepsin B isolated from human liver vs calpain I
T1 construct: cathepsin B—isolated from human liver (Calbiochem #219362); purchased Calbiochem 219362; host or cells: human liver (tissue-derived)
Outline: (§1)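 cat B 0.25 nM + Z-Phe-Arg-AMC 100 μM; cat L 1 nM + Z-Phe-Arg-AMC 2 μM; cat S 0.5 nM (E. coli-expressed) + Z-Val-Val-Arg-AMC 20 μM. 50 mM MES pH 6.0, 2.5 mM L-Cys, RT. Ex 390/em 460, kinetic; Ki app = Cheng-Prusoff from IC50, mean of 2–4 curves.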

cathepsin L = target: T2, cathepsin L (Homo sapiens, UniProt P07711); assay: Cathepsin L enzyme inhibition in vitro (kinetic fluorescence assay); settings: cathepsin L isolated from human liver vs calpain I
T2 construct: cathepsin L—isolated from human liver (Calbiochem #219402); purchased Calbiochem 219402; host or cells: human liver (tissue-derived)
T2 sequence (P07711 114-333): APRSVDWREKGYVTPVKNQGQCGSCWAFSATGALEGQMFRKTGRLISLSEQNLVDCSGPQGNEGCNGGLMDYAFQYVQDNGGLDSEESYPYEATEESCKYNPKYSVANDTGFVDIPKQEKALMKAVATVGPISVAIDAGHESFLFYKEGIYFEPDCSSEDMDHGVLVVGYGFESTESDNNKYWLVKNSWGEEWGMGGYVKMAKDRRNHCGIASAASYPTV
Outline: as §1

cathepsin S = target: T3, cathepsin S (Homo sapiens, UniProt P25774); assay: Cathepsin S enzyme inhibition in vitro (kinetic fluorescence assay); settings: recombinant human cathepsin S vs calpain I
T3 construct: purchased Calbiochem 219343; host or cells: E. coli
T3 sequence (P25774 115-331): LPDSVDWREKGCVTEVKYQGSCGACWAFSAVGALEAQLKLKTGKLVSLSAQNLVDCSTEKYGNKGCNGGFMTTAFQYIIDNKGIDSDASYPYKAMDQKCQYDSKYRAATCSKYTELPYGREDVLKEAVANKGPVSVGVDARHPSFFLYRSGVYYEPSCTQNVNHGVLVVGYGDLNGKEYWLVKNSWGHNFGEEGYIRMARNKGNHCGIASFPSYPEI
Outline: as §1

cathepsin K = target: T4, cathepsin K (Homo sapiens, UniProt P43235); assay: Cathepsin K enzyme inhibition in vitro (kinetic fluorescence assay); settings: cathepsin K activated from recombinant human procathepsin K vs calpain I
T4 construct: purchased Calbiochem 342001; host or cells: E. coli
T4 sequence (P43235 115-329): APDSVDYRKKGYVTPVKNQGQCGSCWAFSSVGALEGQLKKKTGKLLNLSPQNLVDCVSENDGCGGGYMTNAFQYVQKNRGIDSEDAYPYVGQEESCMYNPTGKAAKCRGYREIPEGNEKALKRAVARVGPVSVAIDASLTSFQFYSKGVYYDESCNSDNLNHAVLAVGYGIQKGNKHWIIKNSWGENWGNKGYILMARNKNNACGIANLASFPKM

Structure (SMILES)	Sel cat. B: Ki(cathepsin B)/Ki(calpain) ratio (cathepsin B)	Sel cat. L: Ki(cathepsin L)/Ki(calpain) ratio (cathepsin L)	Sel cat. S: Ki(cathepsin S)/Ki(calpain) ratio (cathepsin S)	Sel cat. K: Ki(cathepsin K)/Ki(calpain) ratio (cathepsin K)
NC(=O)C(=O)C(Cc1ccccc1)NC(=O)c1cccnc1-n1ccc(-c2cc(C(F)(F)F)ccc2CN2CCOCC2)n1 (stereo not shown) [Example 163, N-[3-Amino-2,3-dioxo-1-(phenylmethyl)propyl]-2-{3-[2-(morpholin-4-ylmethyl)-5-(trifluoromethyl)phenyl]-1H-pyrazol-1-yl}pyridine-3-carboxamide]	+ (+ means 10≦Ki(cathepsin B)/Ki(calpain)<30)	+ (+ means 30≦Ki(cathepsin L)/Ki(calpain)<50)	++ (++ means a Ki(cathepsin S)/Ki(calpain) ratio of ≧100)	+ (+ means 10≦Ki(cathepsin K)/Ki(calpain)<30)
NC(=O)C(=O)C(Cc1ccccc1)NC(=O)c1cccnc1-n1ccc(-c2cccc3c2OCC3)n1 (stereo not shown) [Example 164, N-[3-Amino-2,3-dioxo-1-(phenylmethyl)propyl]-2-[3-(2,3-dihydro-1-benzofuran-7-yl)-1H-pyrazol-1-yl]pyridine-3-carboxamide]	+ (+ means 10≦Ki(cathepsin B)/Ki(calpain)<30)	++ (++ means a Ki(cathepsin L)/Ki(calpain) ratio of ≧50)	++ (++ means a Ki(cathepsin S)/Ki(calpain) ratio of ≧100)	++ (++ means a Ki(cathepsin K)/Ki(calpain) ratio of ≧30)
NC(=O)C(=O)C(Cc1ccccc1)NC(=O)c1cccnc1-n1ccc(-c2ccccc2OC(F)F)n1 (stereo not shown) [Example 166, N-[3-Amino-2,3-dioxo-1-(phenylmethyl)propyl]-2-(3-{2-[(difluoromethyl)oxy]phenyl}-1H-pyrazol-1-yl)pyridine-3-carboxamide]	+ (+ means 10≦Ki(cathepsin B)/Ki(calpain)<30)	++ (++ means a Ki(cathepsin L)/Ki(calpain) ratio of ≧50)	++ (++ means a Ki(cathepsin S)/Ki(calpain) ratio of ≧100)	++ (++ means a Ki(cathepsin K)/Ki(calpain) ratio of ≧30)
NC(=O)C(=O)C(Cc1ccccc1)NC(=O)c1cccnc1-n1ccc(-c2cccc(OC(F)(F)F)c2)n1 (stereo not shown) [Example 168, N-[3-Amino-2,3-dioxo-1-(phenylmethyl)propyl]-2-(3-{3-[(trifluoromethyl)oxy]phenyl}-1H-pyrazol-1-yl)pyridine-3-carboxamide]	+ (+ means 10≦Ki(cathepsin B)/Ki(calpain)<30)	++ (++ means a Ki(cathepsin L)/Ki(calpain) ratio of ≧50)	++ (++ means a Ki(cathepsin S)/Ki(calpain) ratio of ≧100)	+ (+ means 10≦Ki(cathepsin K)/Ki(calpain)<30)
NC(=O)C(=O)C(Cc1ccccc1)NC(=O)c1cccnc1-n1cc2c(n1)-c1ccccc1SC2 (stereo not shown) [Example 173, N-[3-Amino-2,3-dioxo-1-(phenylmethyl)propyl]-2-thiochromeno[4,3-c]pyrazol-2(4H)-ylpyridine-3-carboxamide]	+ (+ means 10≦Ki(cathepsin B)/Ki(calpain)<30)	++ (++ means a Ki(cathepsin L)/Ki(calpain) ratio of ≧50)	++ (++ means a Ki(cathepsin S)/Ki(calpain) ratio of ≧100)	+ (+ means 10≦Ki(cathepsin K)/Ki(calpain)<30)
NC(=O)C(=O)C(Cc1ccccc1)NC(=O)c1cccnc1-n1cc2c(n1)-c1ccccc1S(=O)(=O)C2 (stereo not shown) [Example 174, N-[3-Amino-2,3-dioxo-1-(phenylmethyl)propyl]-2-(5,5-dioxidothiochromeno[4,3-c]pyrazol-2(4H)-yl)pyridine-3-carboxamide]	+ (+ means 10≦Ki(cathepsin B)/Ki(calpain)<30)	++ (++ means a Ki(cathepsin L)/Ki(calpain) ratio of ≧50)	++ (++ means a Ki(cathepsin S)/Ki(calpain) ratio of ≧100)	+ (+ means 10≦Ki(cathepsin K)/Ki(calpain)<30)
NC(=O)C(=O)C(Cc1ccccc1)NC(=O)c1cccnc1-n1cc2c(n1)-c1cccc(Cl)c1OC2 (stereo not shown) [Example 175, N-[3-Amino-2,3-dioxo-1-(phenylmethyl)propyl]-2-(6-chlorochromeno[4,3-c]pyrazol-2(4H)-yl)pyridine-3-carboxamide]	++ (++ means a Ki(cathepsin B)/Ki(calpain) ratio of ≧30)	++ (++ means a Ki(cathepsin L)/Ki(calpain) ratio of ≧50)	++ (++ means a Ki(cathepsin S)/Ki(calpain) ratio of ≧100)	++ (++ means a Ki(cathepsin K)/Ki(calpain) ratio of ≧30)
COc1ccc2c(c1)-c1nn(-c3ncccc3C(=O)NC(Cc3ccccc3)C(=O)C(N)=O)cc1CO2 (stereo not shown) [Example 183, N-[3-Aamino-2,3-dioxo-1-(phenylmethyl)propyl]-2-[8-(methyloxy)chromeno[4,3-c]pyrazol-2(4H)-yl]pyridine-3-carboxamide]	+ (+ means 10≦Ki(cathepsin B)/Ki(calpain)<30)	++ (++ means a Ki(cathepsin L)/Ki(calpain) ratio of ≧50)	++ (++ means a Ki(cathepsin S)/Ki(calpain) ratio of ≧100)	+ (+ means 10≦Ki(cathepsin K)/Ki(calpain)<30)
NC(=O)C(=O)C(Cc1ccccc1)NC(=O)c1cccnc1-n1cc(Cl)c(-c2ccc(F)cc2)n1 (stereo not shown) [Example 184, N-[3-Amino-2,3-dioxo-1-(phenylmethyl)propyl]-2-[4-chloro-3-(4-fluorophenyl)-1H-pyrazol-1-yl]pyridine-3-carboxamide]	+ (+ means 10≦Ki(cathepsin B)/Ki(calpain)<30)	++ (++ means a Ki(cathepsin L)/Ki(calpain) ratio of ≧50)	++ (++ means a Ki(cathepsin S)/Ki(calpain) ratio of ≧100)	+ (+ means 10≦Ki(cathepsin K)/Ki(calpain)<30)
NC(=O)C(=O)C(Cc1ccccc1)NC(=O)c1cccnc1-n1ccc(C23CC4CC(CC(C4)C2)C3)n1 (stereo not shown) [Example 193, N-[3-Amino-2,3-dioxo-1-(phenylmethyl)propyl]-2-(3-tricyclo[3.3.1.1^3,7]dec-1-yl-1H-pyrazol-1-yl)pyridine-3-carboxamide]	++ (++ means a Ki(cathepsin B)/Ki(calpain) ratio of ≧30)	++ (++ means a Ki(cathepsin L)/Ki(calpain) ratio of ≧50)	++ (++ means a Ki(cathepsin S)/Ki(calpain) ratio of ≧100)	++ (++ means a Ki(cathepsin K)/Ki(calpain) ratio of ≧30)
